US20220135564A1, “DEUTERATED MITRAGYNINE ANALOGS AS SAFER OPIOID MODULATORS IN THE MITRAGYNINE CLASS” (The Trustees of Columbia University in the City of New York, priority 2019, published 2022)

Columns and labels:
[1] = Mouse brain homogenate (MBH) stability and metabolite formation; type: in vitro ADME; conditions: 2 μM, 37° C., over 120 minutes
Method: MBH Preparation. Male BALB/c mice (12-14 weeks old) were housed in polypropylene cages with free access to standard commercial food pellets and tap water. Animals were sacrificed by cervical dislocation immediately prior to brain homogenate preparation. Brains from 10 mice were fragmented into small pieces and homogenized in ice-cold artificial cerebrospinal fluid solution (ACSF: 126 mM NaCl, 2.68 mM KCl, 1 mM Na2HPO4, 0.88 mM MgSO4, 22 mM NaHCO3, 1.45 mM CaCl2, 10 mM HEPES, 11 mM D-glucose, pH 7.4) using a TH-01 OMNI homogenizer. Samples were centrifuged at 1500×g for 10 minutes. Supernatants were decanted and collected. Total protein concentration was determined by Bradford assay and equaled 17.7 mg/mL. The obtained brain homogenate was flash-frozen in liquid nitrogen. Aliquots were stored at −70° C. until use.
MBH Stability and Metabolite Formation. […] The incubation medium consisted of artificial cerebrospinal fluid solution (ACSF: 126 mM NaCl, 2.68 mM KCl, 1 mM Na2HPO4, 0.88 mM MgSO4, 22 mM NaHCO3, 1.45 mM CaCl2, 10 mM HEPES, 11 mM D-glucose, pH 7.4) with 2 mg of brain protein per mL. Test compounds (2 μM, final solvent concentration 1%) were incubated with brain homogenate at 37° C., shaking at 100 rpm. Incubations were performed in duplicate. Six time points over 120 minutes were analyzed.

[2] = Pharmacokinetics in 129S1 mice, brain metabolite concentrations at 15 minutes; conditions: male 129S1 mice, 10 mg/kg s.c.
HLM metabolite formation = conditions: 2 μM, 37° C., over 40 minutes
Method: HLM Metabolite Formation. Pooled HLM from 50 adult male and female donors (XenoTech H0630, lot 1610016) were used. Microsomal incubations of mitragynine and 3-DM were carried out in 96-well plates in 5 aliquots of 40 μL each (one for each time point). Liver microsomal incubation medium contained PBS (100 mM, pH 7.4), MgCl2 (3.3 mM), NADPH (3 mM), glucose-6-phosphate (5.3 mM), glucose-6-phosphate dehydrogenase (0.67 units/mL) with 0.42 mg of liver microsomal protein per ml. Control incubations were performed replacing the NADPH-cofactor system with PBS. Test compounds (2 μM, final solvent concentration 1.6%) were incubated with microsomes at 37° C., shaking at 100 rpm. Incubations were performed in duplicate. Five time points over 40 minutes were analyzed. The reactions were stopped by adding 8 volumes of 90% acetonitrile-water to incubation aliquots, followed by protein sedimentation by centrifugation at 5500 rpm for 3 minutes. Supernatants were analyzed for parent compound remaining and metabolites DHM (both mitragynine and 3-DM incubations), 7-OH (mitragynine incubations), and 3-d-7-OH (3-DM incubations), using a fit-for-purpose liquid chromatography-tandem mass spectrometry (LC-MS/MS) method, with authentic samples of each analyte used for calibration and identification.

[3] = MS9 metabolite formation (M1, M4, M6) from mitragynine and 3-DM; type: in vitro ADME, mouse; conditions: 2 μM, 37° C., over 60 minutes, MS peak area, compared to mitragynine
Method: MS9 Metabolite Formation. Liver S9 fraction pooled from male CD-1 mice was used. […] Control incubations were performed replacing the cofactor system with phosphate buffer. […] Incubations were performed in duplicate. Five time points over 60 minutes were analyzed. […] Supernatants were analyzed for remaining parent compound and metabolites by liquid chromatography-tandem mass spectrometry (LC-MS/MS).

[4] = Pharmacokinetics in C57BL/6 mice, plasma and brain metabolite concentrations; conditions: male C57BL/6 mice, 10 mg/kg s.c., 0.083-24 h
Method: Animals. Healthy male C57BL/6 mice (8-12 weeks old) weighing between 19 to 28 g were procured from Global, India. Four mice were housed in each cage. Temperature and humidity were maintained at 22±3° C. and 30-70%, respectively and illumination was controlled on a 12-h light/dark cycle. Temperature and humidity were recorded by an auto-controlled data logger system. All animals were provided a laboratory rodent diet (Envigo Research Private Ltd, Hyderabad, India) and reverse osmosis water treated with ultraviolet light was provided ad libitum.
Drugs. Mitragynine and 3-DM were dissolved in normal saline made slightly acidic (˜pH 3) with 1M aqueous HCl. Drugs were administered subcutaneously at a volume of 10 mL/kg body weight and a dose of 10 mg/kg.
Pharmacokinetics. Blood samples (approximately 60 μL) were collected under light isoflurane anesthesia from the retro orbital plexus at 0.083, 0.25, 0.5, 1, 2, 4, 8 and 24 h (4 animals per time point). Plasma samples were separated by centrifugation of whole blood and stored below −70° C. until bioanalysis. Immediately after collection of blood, mice were euthanized and brain samples were collected at 0.083, 0.25, 0.5, 1, 2, 4, 8 and 24 h (4 animals per time point). Brain samples were homogenized using ice-cold phosphate buffered saline (pH 7.4) and homogenates were stored below −70° C. until analysis. Total homogenate volume was three times the tissue weight. Aliquots (25 μL) of each study sample (dilution factor applied for several samples) or spiked calibration standard were added to individual micro-centrifuge tubes followed by 100 μL of internal standard solution prepared in acetonitrile (Glipizide, 500 ng/mL; except for blank, where 100 μL of acetonitrile was added). Samples were vortexed for 5 minutes and then centrifuged for 5 minutes at a speed of 4000 rpm at 4° C. Following centrifugation, supernatants were analyzed for metabolites DHM (both mitragynine and 3-DM treatment) and 7-OH (mitragynine treatment) or 3-d-7-OH (3-DM treatment), using a fit-for-purpose liquid chromatography-tandem mass spectrometry (LC-MS/MS) method, with authentic samples of each analyte used for calibration and identification.

Male Sprague-Dawley rats = experiment: Rat tail-flick assay (analgesic activity); type: in vivo; conditions: oral gavage, 50° C. hot-water bath, 30 minutes after administration
Method: Animals. Male Sprague-Dawley rats, aged 7-8 weeks, were used in experiments. Animals were housed under controlled temperatures and 12-hour light/dark cycles (lights on at 06:00-18:00 h), with ad libitum food and water. The study was approved by the Institutional Animal Care and Use Committee (IACUC) at WuXi AppTec (Shanghai). WuXi's animal facilities and IACUC are fully accredited by the Association for Assessment and Accreditation of Laboratory Animal Care International (AAALAC). All efforts were made to minimize animal suffering.
Drugs and Drug Administration. Drugs were prepared as described above and administered by oral gavage at a volume of 5 mL/kg in de-ionized water acidified with acetic acid.
Tail-Flick. Analgesic activity was assessed in the tail-flick assay 30 minutes (peak effect) after administration of vehicle and each dose of drug (n=8 per treatment). Animals were tested for their latency to withdraw their tails from a hot water bath maintained at 50° C. with a room temperature of 22° C. A cutoff time of 7 seconds was used to prevent tissue damage. Data were analyzed as percent maximal effect, % MPE, which was calculated according to the formula: % MPE=[(observed latency−vehicle latency)/(maximal latency−vehicle latency)]×100. Dose-response curves were fit by nonlinear regression (GraphPad Prism, La Jolla, Calif.).

[5] = Simulated gastric fluid (SGF) incubations monitored by NMR; type: physicochemical; conditions: deuterated SGF, 1.3 mg/mL, room temperature
Method: SGF Incubations. Deuterated SGF (to permit direct NMR monitoring of the reactions) was prepared by combining NaCl (10 mg) and 37% DCl in D2O (35 μL) and diluting up to a final volume of 5.0 mL with D2O. Solutions of 7-OH and 3-d-7-OH in deuterated SGF were prepared at a concentration of 1.3 mg/mL containing N-methyl-2-pyrrolidone (NMP) as an internal standard (IS) at a concentration of 3.33 μL/mL and the reaction mixtures were left to stand at room temperature. NMR spectra were recorded on a Bruker 500 MHz instrument at the following time points: 35, 65, 125, 245, 365, and 1440 minutes (relative to time of solution mixing). Chemical shifts were referenced to the D2O residual solvent peak at 4.79 ppm. Decomposition of parent compounds was quantified by the peak area ratio of a doublet at 6.63 ppm (corresponding to 7-OH and 3-d-7-OH) and a singlet at 2.84 ppm (corresponding to IS). These ratios, calculated at each time point, were normalized to the ratio determined at 35 minutes to obtain values as percent remaining (100% at 35 minutes). Concentration of DHM was determined at each time point by comparing the peak areas of a doublet at 6.70 ppm (corresponding to DHM) and a singlet at 2.84 ppm (corresponding to IS) and using the known concentration of internal standard (3.33 μL/mL=34.5 mM). The concentration of DHM formed from 3-d-7-OH was below the lower limit of quantitation of -0.1 mM at the 35-, 65-, and 125-minute time points.

[6] = Stability and metabolite formation in dog plasma; type: in vitro ADME; conditions: 1 μM, 37° C., over 120 minutes
Method: Stability and Metabolite Formation in Dog Plasma. Beagle dog plasma with Na citrate (Innovatine Research, Inc., lot #IBG-NaCitrate-28323) was used in this study. Plasma incubations were carried out in 5 aliquots of 70 μL each (one for each time point), in duplicate. Test compounds (1 μM, final DMSO concentration 1%) were incubated at 37° C. with shaking at 100 rpm. Five time points over 120 minutes were analyzed. The reactions were stopped by adding 400 μL of acetonitrile-methanol mixture (1:1) with subsequent plasma protein sedimentation by centrifugation at 5500 rpm for 5 minutes.

[7] = compared to 7-OH from mitragynine
[8] = 35-1440 minutes, compared to 7-OH

[2H][C@@]12C[C@H](/C(=C\OC)C(=O)OC)[C@H](CC)CN1CCc1c2[nH]c2cccc(OC)c12 [3-DM, 3-Deuteromitragynine]
decomposition of parent compound in MBH [1]: attenuated the decomposition
formation of DHM in MBH ([1]; compared to mitragynine): attenuated formation of DHM
brain concentration of 7-hydroxy active metabolite (3-d-7-OH) [2, 7]: little effect
brain concentration of DHM ([2]; compared to mitragynine): greatly attenuated
formation of 7-hydroxy active metabolite (3-d-7-OH) in HLMs (HLM metabolite formation; [7]): little effect
concentration of toxic metabolite DHM formed in HLMs (HLM metabolite formation; compared to mitragynine): greatly attenuated
formation of metabolite M1 in MS9 [3]: greatly attenuated
formation of metabolite M4 in MS9 [3]: greatly attenuated
formation of metabolite M6 in MS9 [3]: greatly attenuated
brain concentration of active metabolite 3-d-7-OH [4, 7]: no effect
plasma concentration of active metabolite 3-d-7-OH [4, 7]: no effect
brain concentration of DHM ([4]; compared to mitragynine): greatly attenuated
plasma concentration of DHM ([4]; compared to mitragynine): greatly attenuated
analgesic effect in the tail-flick assay (Male Sprague-Dawley rats): dose-dependent analgesic effects

[2H][C@@]12C[C@H](/C(=C\OC)C(=O)OC)[C@H](CC)CN1CC[C@@]1(O)C2=Nc2cccc(OC)c21 [3-d-7-OH, 3-Deutero-7-hydroxymitragynine]
decomposition of parent compound in SGF [5, 8]: did not slow decomposition
formation of toxic metabolite DHM in SGF [5, 8]: greatly attenuated
concentration of DHM formed in SGF ([5]; 35-, 65-, and 125-minute time points, below lower limit of quantitation): < -100 µM
decomposition of parent compound in dog plasma [6]: attenuated the decomposition
formation of DHM in dog plasma ([6]; compared to 7-OH): attenuated formation of DHM

CC[C@@H]1CN2CC[C@@]3(O)C(=Nc4cccc(OC)c43)[C@@H]2C[C@@H]1/C(=C\OC)C(=O)OC [7-OH, 7-Hydroxymitragynine, reference compound]
decomposition of parent compound in dog plasma [6]: unstable

CC[C@@H]1CN2CCc3c([nH]c4cccc(OC)c34)[C@@H]2C[C@@H]1/C(=C\OC)C(=O)OC [Mitragynine]
decomposition of parent compound in MBH [1]: unstable
analgesic effect in the tail-flick assay (Male Sprague-Dawley rats): dose-dependent analgesic effects
